According to patent US20150315188A1, “COMPOUNDS AND METHODS FOR TREATMENT OF HYPERTENSION” (MEDIVATION TECHNOLOGIES, INC., priority 2012, published 2015):

Assays:
Parameters in all cases: purchased Milipore (Millipore)
[1] = target: T1, Human adrenergic α2B receptor (Homo sapiens, UniProt P18089); test: Radioligand binding, adrenergic α2B (Protocol Group B); settings: Protocol Group B; for Percentage inhibition of ligand binding, Adrenergic α2B (10 nM): 0.01 µM; for Percentage inhibition of ligand binding, Adrenergic α2B (30 nM) / inhibition at 0.03 µM: 30 nM compound; for Percentage inhibition of ligand binding, Adrenergic α2B (30 nM): 0.03 µM; for inhibition at 0.03 µM: read-out: Percentage inhibition of ligand binding, Adrenergic α2B (30 nM)
T1 sequence (P18089 1-450): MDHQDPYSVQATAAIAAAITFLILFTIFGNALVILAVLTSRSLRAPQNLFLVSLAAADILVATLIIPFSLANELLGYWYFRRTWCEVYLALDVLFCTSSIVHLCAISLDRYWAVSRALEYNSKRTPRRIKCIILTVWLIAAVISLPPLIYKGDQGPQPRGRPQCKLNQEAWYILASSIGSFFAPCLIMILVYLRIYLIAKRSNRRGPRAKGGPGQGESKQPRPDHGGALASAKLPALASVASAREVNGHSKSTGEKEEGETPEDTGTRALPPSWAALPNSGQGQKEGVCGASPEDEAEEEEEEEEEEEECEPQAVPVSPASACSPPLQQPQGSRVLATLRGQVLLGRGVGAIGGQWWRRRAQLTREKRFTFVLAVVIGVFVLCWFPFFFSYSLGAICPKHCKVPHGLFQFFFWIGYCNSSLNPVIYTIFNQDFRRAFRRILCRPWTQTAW
Procedure, shortened: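 Recombinant human α2B receptor membranes incubated with compounds in 50 mM Tris-HCl pH 7.4, 5 mM MgCl2, 1 mM CaCl2, 0.2% BSA, 1% DMSO vehicle. Non-specific binding defined with 10 μM rauwolscine. Values are percent inhibition of specific binding or estimated Ki.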

[2] = target: T2, Human adrenergic α1B receptor (Homo sapiens, UniProt P35368); test: Radioligand binding, adrenergic α1B (Protocol Group B); settings: Protocol Group B; for Percentage inhibition of ligand binding, Adrenergic α1B (0.1 μM) / inhibition at 0.1 µM: 0.1 μM compound; for inhibition at 0.1 µM: read-out: Percentage inhibition of ligand binding, Adrenergic α1B (0.1 μM)
T2 sequence (P35368 1-520): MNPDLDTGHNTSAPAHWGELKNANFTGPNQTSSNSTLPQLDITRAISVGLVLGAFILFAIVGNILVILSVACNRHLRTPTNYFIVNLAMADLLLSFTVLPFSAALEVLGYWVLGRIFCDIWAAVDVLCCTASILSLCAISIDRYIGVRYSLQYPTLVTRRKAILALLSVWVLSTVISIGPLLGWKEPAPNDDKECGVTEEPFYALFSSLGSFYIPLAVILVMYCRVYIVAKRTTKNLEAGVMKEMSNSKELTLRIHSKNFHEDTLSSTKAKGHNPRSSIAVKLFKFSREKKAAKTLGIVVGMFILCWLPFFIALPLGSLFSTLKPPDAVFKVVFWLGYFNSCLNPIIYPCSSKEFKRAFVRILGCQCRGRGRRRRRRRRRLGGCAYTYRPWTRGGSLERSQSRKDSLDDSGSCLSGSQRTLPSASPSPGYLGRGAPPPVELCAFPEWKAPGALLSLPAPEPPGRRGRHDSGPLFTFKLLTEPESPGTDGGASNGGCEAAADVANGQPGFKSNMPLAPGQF
Procedure, shortened: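 Recombinant human α1B membranes incubated with test compound and 0.3 nM [3H]prazosin, 60 min at 25 °C, in 50 mM Tris-HCl pH 7.4, 10 mM MgCl2, 1 mM EDTA; nonspecific binding with 10 μM prazosin. Filter-bound radioactivity counted; values are % inhibition of specific binding or estimated Ki.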

[3] = target: T3, Human adrenergic α2A receptor (Homo sapiens, UniProt P08913); test: Radioligand binding, adrenergic α2A (Protocol Group B); settings: Protocol Group B
T3 sequence (P08913 1-465): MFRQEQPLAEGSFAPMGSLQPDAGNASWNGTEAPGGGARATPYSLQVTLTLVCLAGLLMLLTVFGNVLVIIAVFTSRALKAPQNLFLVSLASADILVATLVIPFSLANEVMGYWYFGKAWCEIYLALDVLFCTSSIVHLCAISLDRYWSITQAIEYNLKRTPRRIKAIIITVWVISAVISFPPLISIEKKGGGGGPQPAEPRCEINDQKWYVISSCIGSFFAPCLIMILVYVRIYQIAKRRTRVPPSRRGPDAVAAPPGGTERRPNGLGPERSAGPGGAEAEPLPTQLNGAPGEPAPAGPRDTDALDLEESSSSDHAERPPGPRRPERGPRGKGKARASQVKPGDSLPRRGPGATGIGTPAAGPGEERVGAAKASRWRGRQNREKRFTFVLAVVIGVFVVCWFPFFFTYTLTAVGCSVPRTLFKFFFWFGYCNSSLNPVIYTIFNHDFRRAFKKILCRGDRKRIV
Procedure, shortened: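 Membranes from recombinant cells expressing the receptor, in 50 mM Tris-HCl pH 7.4 with 5 mM MgCl2, 1 mM CaCl2, 0.2% BSA; compounds incubated with 2 nM [^3H]MK-912 for 60 min at 25° C. Nonspecific binding defined by 10 μM rauwolscine; filtration, counting; percent inhibition of specific binding, or estimated Ki.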

| SMILES | Percentage inhibition of ligand binding, Adrenergic α2B (10 nM) ([1]; 10 nM compound) [%] | Percentage inhibition of ligand binding, Adrenergic α2B (30 nM) [1] [%] | Percentage inhibition of ligand binding, Adrenergic α2B (0.1 μM) ([1]; 0.1 μM compound) [%] | Ki ([1]; estimated Ki, read-out: Ki α2B) [nM] | Percentage inhibition of ligand binding, Adrenergic α1B (0.1 μM) [2] [%] | Percentage inhibition of ligand binding, Adrenergic α1B (0.3 μM) ([2]; 0.3 μM compound) [%] | Percentage inhibition of ligand binding, Adrenergic α2A (0.1 μM) ([3]; 0.1 μM compound) [%] | Percentage inhibition of ligand binding, Adrenergic α2A (0.3 μM) ([3]; 0.3 μM compound) [%] | inhibition at 0.01 µM ([1]; 10 nM compound, read-out: Percentage inhibition of ligand binding, Adrenergic α2B (10 nM)) [%] | inhibition at 0.03 µM [1] [%] | inhibition at 0.1 µM ([1]; 0.1 μM compound, read-out: Percentage inhibition of ligand binding, Adrenergic α2B (0.1 μM)) [%] | inhibition at 0.1 µM [2] [%] | inhibition at 0.3 µM ([2]; 0.3 μM compound, read-out: Percentage inhibition of ligand binding, Adrenergic α1B (0.3 μM)) [%] | inhibition at 0.1 µM ([3]; 0.1 μM compound, read-out: Percentage inhibition of ligand binding, Adrenergic α2A (0.1 μM)) [%] | inhibition at 0.3 µM ([3]; 0.3 μM compound, read-out: Percentage inhibition of ligand binding, Adrenergic α2A (0.3 μM)) [%] |
| --- | --- | --- | --- | --- | --- | --- | --- | --- | --- | --- | --- | --- | --- | --- | --- |
| CC(O)(Cn1c2c(c3cc(Cl)cc(F)c31)C1CCCN1CC2)c1cccnc1 (single isomer, unassigned) [53b] | 74 | 91 | 97 | 1.8 | 4 | 33 | 34 | 54 |  |  |  |  |  |  |  |
| Cc1ccc2c(c1)c1c(n2CC(O)c2ccccn2)CC2CCCN2C1 (single isomer, unassigned) [45b] | 4 | 7 | 23 |  | 18 | 52 | −3 | 9 |  |  |  |  |  |  |  |
| Cc1ccc2c(c1)c1c(n2CC(OC(C)C)c2ccncc2)CCN(C)C1 (stereo not drawn) [compound 49, 5-(2-isopropoxy-2-(pyridin-4-yl)ethyl)-2,8-dimethyl-2,3,4,5-tetrahydro-1H-pyrido[4,3-b]indole] |  |  |  |  |  |  |  |  | 50 | 74 | 91 | 9 | 40 | 28 | 53 |
| Cc1cc(Br)c2c(c1)c1c(n2CC(O)c2ccncc2)CCN2CCCC12 (single isomer, unassigned) [145b] |  | 100 |  |  | 68 |  | 89 |  |  |  |  |  |  |  |  |
| Cc1cc(F)cc2c3c(n(CC(C)(O)c4ccncc4)c12)CC1CCCN1C3 (single isomer, unassigned) [78d] | 1 | −3 |  |  | 1 | 7 | 2 | −4 |  |  |  |  |  |  |  |
| Cc1ccc2c(c1)c1c(n2CC(O)c2ccncc2)CNC2CCCC12 (single isomer, unassigned) [34b] | 15 | 6 | 32 |  | −16 | 12 | −7 | −2 |  |  |  |  |  |  |  |
| CC(O)(Cn1c2c(c3cc(F)cc(Cl)c31)C1CCCN1CC2)c1cccnc1 (single isomer, unassigned) [89b] | 0 | 1 |  |  | 3 | 9 | 8 | 6 |  |  |  |  |  |  |  |
| Cc1cc(F)c2c(c1)c1c(n2CC(C)(O)c2cccnc2)CC2CCCN2C1 (single isomer, unassigned) [61b] | −8 | 3 | 28 |  | −7 | 11 | 6 | 22 |  |  |  |  |  |  |  |
| Cc1ccc2c(c1)c1c(n2CC(C)(O)c2ccc(N(C)C)nc2)CCN(C)C1 (stereo not drawn) [compound 39, 1-(2,8-dimethyl-3,4-dihydro-1H-pyrido[4,3-b]indol-5(2H)-yl)-2-(6-(dimethylamino)pyridin-3-yl)propan-2-ol] | 11 |  | 64 |  |  | 34 | 17 | 19 |  | 35 |  | 17 |  |  |  |
| CC(O)(Cn1c2c(c3cc(F)ccc31)C1CCCN1CC2)c1cccnc1 (stereo not drawn) [57b] | −7 | −4 | 8 |  | −10 | −7 | −6 | −7 |  |  |  |  |  |  |  |
| Cc1ccc2c(c1)c1c(n2CC(C)(O)c2ccncc2)CC2CCCN2C1 (single isomer, unassigned) [37c] | 19 | 46 | 73 |  | 15 | 37 | −2 | 14 |  |  |  |  |  |  |  |
| Cc1ccc2c(c1)c1c(n2CC(C)(O)c2ccc(F)cc2)CN2CCC1C2 (single isomer, unassigned) [134b] |  | 40 |  |  | 29 |  | 7 |  |  |  |  |  |  |  |  |
| Cc1cc(F)c2c(c1)c1c(n2CC(O)c2ccncc2)CCN2CCCC12 (single isomer, unassigned) [137d] | 21 | 24 |  |  | 19 | 18 | 15 | 16 |  |  |  |  |  |  |  |
| OC(Cn1c2c(c3cc(Cl)cc(F)c31)C1CCCN1CC2)c1ccncc1 (single isomer, unassigned) [135d] | −1 | 8 |  |  | −7 | 9 | 0 | 2 |  |  |  |  |  |  |  |
| Cc1cc(Cl)c2c(c1)c1c(n2CC(O)c2ccncc2)CCN2CCCC12 (single isomer, unassigned) [142a] |  |  |  |  | 46 |  | 52 |  |  | 92 |  |  |  |  |  |
